{"source": "patent US6355633B1", "about": "“Aryl sulfonic acids and derivatives as FSH antagonists” (American Home Products Corporation, priority 1999, dated 2002)"}
{"molecular_target": "T1, FSH receptor (Rattus norvegicus, UniProt P20395)", "T1 construct": "endogenous in cells; host or cells: primary ovarian granulosa cells of DES-treated immature Sprague-Dawley rats", "T1 sequence (P20395 18-692)": "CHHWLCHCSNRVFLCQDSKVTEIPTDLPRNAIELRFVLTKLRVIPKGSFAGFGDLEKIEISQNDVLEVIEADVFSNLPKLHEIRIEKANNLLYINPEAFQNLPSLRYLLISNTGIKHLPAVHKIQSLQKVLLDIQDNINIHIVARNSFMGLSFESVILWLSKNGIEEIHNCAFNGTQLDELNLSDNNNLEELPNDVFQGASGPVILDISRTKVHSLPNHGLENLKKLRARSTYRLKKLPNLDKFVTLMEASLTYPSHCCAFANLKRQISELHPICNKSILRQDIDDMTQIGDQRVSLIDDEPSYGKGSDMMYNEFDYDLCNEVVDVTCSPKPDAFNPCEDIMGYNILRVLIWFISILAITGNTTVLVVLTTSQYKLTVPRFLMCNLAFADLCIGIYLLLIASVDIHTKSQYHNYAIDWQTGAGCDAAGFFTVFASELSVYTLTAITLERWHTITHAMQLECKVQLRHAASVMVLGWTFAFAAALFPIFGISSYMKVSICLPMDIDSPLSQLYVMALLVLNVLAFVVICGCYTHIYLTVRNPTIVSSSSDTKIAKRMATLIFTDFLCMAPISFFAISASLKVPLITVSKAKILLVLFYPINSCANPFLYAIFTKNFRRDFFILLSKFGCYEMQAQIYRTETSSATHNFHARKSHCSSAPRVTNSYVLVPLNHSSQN", "assay": "In Vitro Bio-test Procedure of Agonists and Antagonists to the FSH Receptor Using Primary Cultures of Rat Granulosa (estradiol secretion)", "type": "cell-based", "conditions": "not given", "protocol": "(§1) In Vitro Bio-test Procedure of Agonists and Antagonists to the FSH Receptor Using Primary Cultures of Rat Granulosa\n(§2) Materials and Methods: Reagents\n(§3) The concentration of vehicle was maintained constant throughout all dilutions.\n(§4) Preparation of Granulosa Cells: Twenty-four day-old immature female Sprague-Dawley rats (Charles River Laboratories, Wilmington, Mass.) were used as donors for ovarian granulosa cells. The animals were treated by single daily injections of 100 mg/kg diethylstilbestrol (DES) in oil over three days. On the fourth day, animals were sacrificed by CO2 asphyxiation and the ovaries were removed. Ovaries were washed three times in 50 mL of sterile HEPES-buffered saline (HBS, pH 7.4). Granulosa cells were harvested by incubating ovaries in a hypertonic medium consisting of serum-free McCoy*s SA medium (Gibco Life Sciences, Grand Island, N.Y.) supplemented with […], […], 5 ng/mL sodium selenite (ITS, Sigma Chemical Co., St. Louis Mo.), […] L-glutamine, 100 nM testosterone, 100 nM DES and 100 U/mL penicillin/[…]/250 ng/mL amphotericin B (antibiotic/antimycotic, Gibco) containing 0.5 M sucrose and 0.1 mM EGTA. Ovaries were then incubated for 45 min. at 37 C. in a humidified incubator gassed with 95% air/5% CO2. They were washed 3 times with 10 mL isotonic medium (hypertonic medium without sucrose and EGTA) and incubated another 45 min. in isotonic medium at 37 C. Granulosa cells were harvested by squeezing the ovaries between two sterile glass microscope slides. Isolated granulosa cells were then placed in an 50 mL centrifuge tube and washed two times by the addition of 50 mL serum-free McCoy*s 5A medium followed by centrifugation at 700×g for 5 min. After the final spin, the cells were resuspended by gentle trituration in 25 mL serum-free medium, an aliquot counted in a hemocytometer and viability estimated by trypan blue exclusion. Cells were plated into 24-well Nunc tissue culture plates at 200,000 viable cells/well in […].\n(§5) Procedure: Following plating of the cells, the plates are incubated at 37 C for 2-4 hours at which time the treatments are added to the cells. Treatments are added to the wells at 2× the desired final concentration in […] in isotonic medium containing 0.2% BSA. The cells are incubated at 37 C. for 72 h. At the end of the incubation period, the medium is removed from the wells and tested for estradiol concentration by radioimmunoassay.\n(§6) Experimental Groups: In the 24-well format, the plate was divided into 6 columns of 4 wells/column. One plate per compound was used to test either agonist or antagonist modes. […]\n(§7) Four different doses of compound were tested in the antagonist mode. In addition, one column was used for a negative control (vehicle alone) and the other remaining column for a positive control (ED50 of FSH alone).\n(§8) The doses of compound chosen to test were extrapolated from the initial functional screening process. Along with the plates testing compounds, another plate was run in parallel using a dose-response of FSH (0.01-100 ng/mL) as a positive control.\n(§9) Analysis of Results: Estradiol was expressed as pg/mL. Estradiol secretion in agonist mode, or the ability of the compound to inhibit FSH-induced estradiol secretion in antagonist, was compared to the appropriate negative and positive controls. Data were analyzed statistically by analysis of variance with Huber weighting of log transformed data. Paired differences were determined using the LSD test\n(§10) Reference Compounds: Test compounds were compared to the effect of purified or recombinant human FSH.", "units": {"IC50": "nM"}}
{"compound": "COc1ccc(C(=O)Nc2ccc(/C=C/c3ccc(NC(=O)c4ccc(OC)c(S(=O)(=O)N5CCS(=O)(=O)CC5)c4)cc3S(=O)(=O)O)c(S(=O)(=O)O)c2)cc1S(=O)(=O)N1CCS(=O)(=O)CC1", "note": "[Example 30k, 2,2′-[(E)-1,2-Ethenediyl]bis[5-[[3-[(1,1-dioxido-4-thiomorpholinyl)sulfonyl]-4-methoxybenzoyl]amino]benzenesulfonic Acid]]", "IC50": 3100}
{"compound": "COCCOCCOc1ccc(C(=O)Nc2ccc(/C=C/c3ccc(NC(=O)c4ccc(OCCOCCOC)c(S(=O)(=O)N5CCOCC5)c4)cc3S(=O)(=O)O)c(S(=O)(=O)O)c2)cc1S(=O)(=O)N1CCOCC1", "note": "[Example 30a, 2,2′-[(E)-1,2-Ethenediyl]bis[5-[[4-[2-(2-methoxyethoxy)ethoxy]-3-(4-morpholinylsulfonyl)benzoyl]amino]benzenesulfonic Acid]]", "IC50": 1900}
{"compound": "COc1ccc(C(=O)Nc2ccc(/C=C/c3ccc(NC(=O)c4ccc(OC)c(S(=O)(=O)N5CCCC5)c4)cc3S(=O)(=O)O)c(S(=O)(=O)O)c2)cc1S(=O)(=O)N1CCCC1", "note": "[Example 33e, 2,2′-[(E)-1,2-Ethenediyl]bis[5-[[4-methoxy-3-(1-pyrrolidinylsulfonyl)benzoyl]amino]benzenesulfonic Acid]]", "IC50": 2100}
{"compound": "COCCOc1ccc(C(=O)Nc2ccc(/C=C/c3ccc(NC(=O)c4ccc(OCCOC)c(S(=O)(=O)N5CCOCC5)c4)cc3S(=O)(=O)O)c(S(=O)(=O)O)c2)cc1S(=O)(=O)N1CCOCC1", "note": "[Example 30t, 2,2′-[(E)-1,2-Ethenediyl]bis[5-[[4-(2-methoxyethoxy)-3-(4-morpholinylsulfony)benzoyl]amino]benzenesulfonic Acid]]", "IC50": 1400}
{"compound": "CS(=O)(=O)c1ccc(C(=O)Nc2ccc(/C=C/c3ccc(NC(=O)c4ccc(S(C)(=O)=O)c(S(=O)(=O)N5CCOCC5)c4)cc3S(=O)(=O)O)c(S(=O)(=O)O)c2)cc1S(=O)(=O)N1CCOCC1", "note": "[Example 30d, 2,2′-[(E)-1,2-Ethenediyl]bis[5-[[4-(methylsulfonyl)-3-(4-morpholinylsulfonyl)benzoyl]amino]benzenesulfonic Acid]]", "IC50": 2800}
{"compound": "CS(=O)(=O)c1ccc(C(=O)Nc2ccc(/C=C/c3ccc(NC(=O)c4ccc(S(C)(=O)=O)cc4)cc3S(=O)(=O)O)c(S(=O)(=O)O)c2)cc1", "note": "[Example 30q, 2,2′-[(E)-1,2-Ethenediyl]bis[5-[[4-(methylsulfonyl)benzoyl]amino]benzenesulfonic Acid]]", "IC50": 1300}
{"compound": "COc1ccc(C(=O)Nc2ccc(/C=C/c3ccc(NC(=O)c4ccc(OC)c(S(=O)(=O)N5CCN(C=O)CC5)c4)cc3S(=O)(=O)O)c(S(=O)(=O)O)c2)cc1S(=O)(=O)N1CCN(C=O)CC1", "note": "[Example 34b, 2,2′-[(E)-1,2-Ethenediyl]bis[5-[[3-[(4-formyl-1-piperazinyl)sulfonyl]-4-methoxybenzoyl]amino]benzenesulfonic Acid]]", "IC50": 4900}
{"compound": "COc1ccc(C(=O)Nc2ccc(/C=C/c3ccc(NC(=O)c4ccc(OC)c(S(=O)(=O)N5CCSCC5)c4)cc3S(=O)(=O)O)c(S(=O)(=O)O)c2)cc1S(=O)(=O)N1CCSCC1", "note": "[Example 33d, 2,2′-[(E)-1,2-Ethenediyl]bis[5-[[4-methoxy-3-(4-thiomorpholinylsulfonyl)benzoyl]amino]benzenesulfonic Acid]]", "IC50": 10000}
{"compound": "COc1ccc(C(=O)Nc2ccc(CCc3ccc(NC(=O)c4ccc(S(C)(=O)=O)cc4)cc3S(=O)(=O)O)c(S(=O)(=O)O)c2)cc1S(=O)(=O)N1CCOCC1", "note": "[Example 43a, 5-[[4-Methoxy-3-(4-morpholinylsulfonyl)benzoyl]amino]-2-[2-[4-[[4-(methylsulfonyl)benzoyl]amino]-2-sulfophenyl]ethyl]benzenesulfonic Acid]", "IC50": 17000}
{"compound": "COCCNS(=O)(=O)c1cc(C(=O)Nc2ccc(/C=C/c3ccc(NC(=O)c4ccc(S(C)(=O)=O)c([N+](=O)[O-])c4)cc3S(=O)(=O)O)c(S(=O)(=O)O)c2)ccc1OC", "note": "[Example 30f]", "IC50": 8000}
{"compound": "CSc1ccc(C(=O)Nc2ccc(/C=C/c3ccc(NC(=O)c4ccc(S(C)(=O)=O)c([N+](=O)[O-])c4)cc3S(=O)(=O)O)c(S(=O)(=O)O)c2)cc1S(=O)(=O)N1CCOCC1", "note": "[Example 30e]", "IC50": 1800}
{"compound": "CCS(=O)(=O)c1ccc(C(=O)Nc2ccc(/C=C/c3ccc(NC(=O)c4ccc(S(=O)(=O)CC)cc4)cc3S(=O)(=O)O)c(S(=O)(=O)O)c2)cc1", "note": "[Example 32f, 2,2′-[(E)-1,2-Ethenediyl]bis[5-[[4-(ethylsulfonyl)benzoyl]amino]benzenesulfonic Acid]]", "IC50": 2800}
{"compound": "COc1ccc(C(=O)Nc2ccc(/C=C/c3ccc(NC(=O)c4ccc(OC)c(S(=O)(=O)N5CCOCC5)c4)cc3S(=O)(=O)O)c(S(=O)(=O)O)c2)cc1S(=O)(=O)N1CCOCC1", "note": "[Example 30s, 2,2′-[(E)-1,2-Ethenediyl]bis[5-[[4-methoxy-3-(4-morpholinylsulfonyl)benzoyl]amino]benzenesulfonic Acid]]", "IC50": 1200}
{"compound": "COc1ccc(C(=O)Nc2ccc(/C=C/c3ccc(NC(=O)c4ccc(OC)c(S(=O)(=O)N5CCN(C(C)=O)CC5)c4)cc3S(=O)(=O)O)c(S(=O)(=O)O)c2)cc1S(=O)(=O)N1CCN(C(C)=O)CC1", "note": "[Example 34a, 2,2′-[(E)-1,2-Ethenediyl]bis[5-[[3-[(4-acetyl-1-piperazinyl)sulfonyl]-4-methoxybenzoyl]amino]benzenesulfonic Acid]]", "IC50": 57000}
{"compound": "O=C(Nc1ccc(/C=C/c2ccc(NC(=O)c3ccc(OC4CCOCC4)c(S(=O)(=O)N4CCOCC4)c3)cc2S(=O)(=O)O)c(S(=O)(=O)O)c1)c1ccc(OC2CCOCC2)c(S(=O)(=O)N2CCOCC2)c1", "note": "[Example 30r, 2,2′-[(E)-1,2-Ethenediyl]bis[5-[[3-(4-morpholinylsulfonyl)-4-[(tetrahydro-2H-pyran-4-yl)oxy]benzoyl]amino]benzenesulfonic Acid]]", "IC50": 1100}
{"compound": "COCCNS(=O)(=O)c1cc(C(=O)Nc2ccc(/C=C/c3ccc(NC(=O)c4ccc(OC)c(S(=O)(=O)NCCOC)c4)cc3S(=O)(=O)O)c(S(=O)(=O)O)c2)ccc1OC", "note": "[Example 30m, 2,2′-[(E)-1,2-Ethenediyl]bis[5-[[4-methoxy-3-[[(2-methoxyethyl)amino]sulfonyl]benzoyl]amino]benzenesulfonic Acid]]", "IC50": 6700}
{"molecular_target": "T1, FSH receptor", "assay": "In Vitro Bio-test Procedure of Agonists and Antagonists to the FSH Receptor Using Primary Cultures of Rat Granulosa (estradiol secretion)", "type": "cell-based", "conditions": "antagonist mode, inhibition of FSH-induced estradiol secretion (ED50 of FSH, 0.5 ng/mL), rat granulosa cells, 72 h", "protocol": "as §1, §2, §3, §4, §5, §6, §7, §8, §9, §10", "units": {"IC50": "nM"}}
{"compound": "COc1ccc(C(=O)Nc2ccc(/C=C/c3ccc(NC(=O)c4ccc(S(C)(=O)=O)cc4)cc3S(=O)(=O)O)c(S(=O)(=O)O)c2)cc1S(=O)(=O)N1CCOCC1", "note": "[Example 30g]", "IC50": 2400}
{"compound": "CS(=O)(=O)c1ccc(C(=O)Nc2ccc(/C=C/c3ccc(NC(=O)c4ccc(S(C)(=O)=O)c([N+](=O)[O-])c4)cc3S(=O)(=O)O)c(S(=O)(=O)O)c2)cc1[N+](=O)[O-]", "note": "[Example 30c, 2.2′-[(E)-1,2-Ethenediyl]bis[5-[[(4-methylsulfonyl)-3-(nitro)-benzoyl]amino]benzenesulfonic Acid]]", "IC50": 3800}
{"compound": "2,2′-[(E)-1,2-Ethenediyl]bis[5-[[4-(methylthio)-3-(4-morpholinylsulfonyl)benzoyl]amino]benzenesulfonic Acid] [Example 30b]", "IC50": 1500}
